Measured values as given in patent US20140148336A1, “METHODS OF CONTROLLING FUNGAL PATHOGENS USING POLYENE FUNGICIDES” (priority 2012, published 2014).
Like-named read-outs stand apart in the source and are kept apart here.

Legend:
F. virguliforme = assay type: in vivo, Fusarium virguliforme; settings: 50 mL per cone, 2% low rate infested soil, 18-21 days
Protocol: Sorghum was prepared for inoculation. One to two liters of sorghum seed was put into spawn bags, autoclaved, then inoculated with 30-45 mL of an SDA spore suspension. Bags were left in a cupboard at room temperature, then shaken and mixed every few days for three weeks until ready. Sorghum inoculum was assessed for the number of spores per gram of seed by hemacytometer. The sorghum grew to 4.57×10^5 spores/g.
F. virguliforme spores were enumerated before soil inoculation. First, 25 mL of sterile 0.1% Tween 80 in water was added to sterile 50 mL conical tubes. The tubes where weighed. Then several grains of colonized sorghum from the spawn bag were aseptically added. The tubes were re-weighed to find the exact mass of colonized spores added to the tube. The tubes were shaken at 28-30° C. at approximately 250 rpm for 2-4 hours to release spores from the sorghum seed. Samples were then removed from the tubes and spores were quantified using a hemacytometer. F. virguliforme spores were quantified by making a dilution series from each tube onto PDA plates with 100 ppm chloramphenicol antibiotic.
Soil inoculation began by grounding sorghum grain inoculum in a Waring blender in small batches for 10-20 seconds on the low setting. The ground sorghum was then mixed into Monterey sand fine #60 (Lapis Luster, RMC pacific materials) at either a “2% low rate,” consisting of 2×10^5 spores/cone with 8.9 g/L of sand, or a “5% high rate,” consisting of 5×10^5 spores/cone with 22.5 g/L of sand. The Monterey sand was not pre-sterilized. The ground sorghum inoculum was added on the same day as the experimental set up. In later experiments, ground sorghum inoculum was mixed into sand based on the enumerated spores per gram of inoculum.
Natamycin solution was added in four different concentrations to four different groups of untreated seeds in “2% low rate” infested soil cones. The four different concentrations were 250 ppm, 100 ppm, 50 ppm, and 25 ppm. Fifty milliliters of the natamycin solutions were used per cone.
The assays were planted by first moistening infested sand with water at 150 mL per liter of sand and mixing. The cone-shaped containers were filled 1-2 inches at the bottom with a Sunshine #3 potting mix plug in order to keep the sand in the tube. The containers were then filled to within 1-1.5 inches of the top with moistened and infested sand, taking an average of 120-125 mL to fill each container. The containers were then watered. Two soy seeds were planted into each container. […]
The plants were allowed to grow for 18-21 days. The plants were then gently removed and assessed for root rot symptoms, with a rating of 1=0% infection on taproot and lateral roots, a 2=<25% infection, a 3=25-50% infection, a 4=51-90% infection, and a 5=>90% infection. […]

soybean = assay: Seed treatment in uninfested soil, germination and potential phytotoxicity (Example 5); assay type: in vivo; settings: for Root Vigor Average (Uninfested Soil): rating 0-4 (4 = healthy taproot)
Excerpt: (§1) The plants were allowed to grow for 18-21 days. The plants were then gently removed and assessed for root rot symptoms, with a rating of 1=0% infection on taproot and lateral roots, a 2=<25% infection, a 3=25-50% infection, a 4=51-90% infection, and a 5=>90% infection. Root vigor was rated such that a rating of 4=healthy taproot and many lateral roots, a 3=fewer lateral roots and some stunting, a 2=fewer or stringy lateral roots and more stunting, 1=thin tap root and only a few lateral roots, and a 0=thin and stunted taproot with 0-3 lateral roots.
Using a protocol similar to Example 2, natamycin treated seeds were tested at 50 μg, 25 μg, 10 μg, 5 μg, and 1 μg natamycin per seed. Briefly, seeds were coated with a natamycin slurry and then allowed to air dry. Ten samples of each were planted into infested soil, while five samples of each were planted in uninfested soil to compare germination and potential phytotoxicity.

SDS spores = assay: Drench treatment on soy seedlings for control of SDS in planta (Example 3); assay type: in vivo, Fusarium virguliforme; settings: 50 mL per container, 1×10^7 spores/container, eighteen days
Excerpt: as §1, with “roots. […] Two experiments were performed. The natamycin solutions were used as a drench treatment with 50 mL of the solution applied to each container. Soy seedlings were transplanted into SDS infested soil, with SDS spores at a rate of 1×10^7 spores/container. The natamycin solutions were applied to the containers the day after transplant. Soy roots were washed after eighteen days.” for “roots.”

For `C[C@@H]1C/C=C/C=C/C=C/C=C/[C@H](O[C@@H]2O[C@H](C)[C@@H](O)[C@H](N)[C@@H]2O)C[C@@H]2O[C@](O)(C[C@@H](O)C[C@H]3O[C@@H]3/C=C/C(=O)O1)C[C@H](O)[C@H]2C(=O)O` [Natamycin, natamycin], the “root rot ratings as compared to the infected control” value (F. virguliforme; 25 ppm/container) was “significantly lowering”, the “root vigor as compared to the infected control” value (F. virguliforme; 25 ppm/container) was “improving” and the “root rot ratings as compared to the infected control” value (F. virguliforme; 50 ppm/container) was “significantly lowering”. The “root vigor as compared to the infected control” value (F. virguliforme; 50 ppm/container) was “improving”, the germination of plants (soybean; all plants, seed treatment at all natamycin concentrations (50, 25, 10, 5, 1 μg per seed), un-infested (clean) soil) was “germinated” and the “Root Vigor Average (Uninfested Soil)” value (soybean; seed treatment 1 μg/seed) was 3.5. For the same compound, the “Root Vigor Average (Uninfested Soil)” value (soybean; seed treatment 5 μg/seed) was 3.9, the “Root Vigor Average (Uninfested Soil)” value (soybean; seed treatment 10 μg/seed) was 3.6 and the “Root Vigor Average (Uninfested Soil)” value (soybean; seed treatment 25 μg/seed) was 3.3. The “Root Vigor Average (Uninfested Soil)” value (soybean; seed treatment 50 μg/seed) was 3.8, the phytotoxicity to seeds (soybean; seed treatment at all concentrations (50, 25, 10, 5, 1 μg per seed), un-infested soil) was “not phytotoxic” and the “root rot ratings vs infested control (IC) plants” value (SDS spores; drench 10 ppm) was “significantly lower”. For the same compound, the “root vigor ratings vs infested control (IC) plants” value (SDS spores; drench 10 ppm) was “higher”, the “root rot ratings vs infested control (IC) plants” value (SDS spores; drench 25 ppm) was “significantly lower” and the “root vigor ratings vs infested control (IC) plants” value (SDS spores; drench 25 ppm) was “higher”. The “root rot ratings vs infested control (IC) plants” value (SDS spores; drench 50 ppm) was “significantly lower” and the “root vigor ratings vs infested control (IC) plants” value (SDS spores; drench 50 ppm) was “higher”.
